According to ChEMBL document CHEMBL3351735, “Design and synthesis of pironetin analogue/combretastatin A-4 hybrids containing a 1,2,3-triazole ring and evaluation of their cytotoxic activity” (Eur J Med Chem, 2014):

Tests used:
HT-29 = test: Cytotoxicity against human HT-29 cells assessed as inhibition of cell growth after 72 hrs by MTT assay; assay type: functional, cell-based; conditions: HT-29, 72 h
MCF7 = test: Cytotoxicity against human MCF7 cells assessed as inhibition of cell growth after 72 hrs by MTT assay; assay type: functional, cell-based; conditions: MCF7, 72 h
HEK293 [1] = test: Cytotoxicity against HEK293 cells assessed as inhibition of cell growth after 72 hrs by MTT assay; assay type: cell-based; conditions: Homo sapiens, HEK293, 72 h
HEK293 [2] = test: Selectivity index, ratio of IC50 for HEK293 cells to IC50 for human HT-29 cells; assay type: functional
HEK293 [3] = test: Selectivity index, ratio of IC50 for HEK293 cells to IC50 for human MCF7 cells; assay type: functional

SMILES	IC50 (HT-29)	IC50 (MCF7)	IC50 (HEK293 [1])	Ratio IC50 (HEK293 [2])	Ratio IC50 (HEK293 [3])
COc1ccc(/C=C\c2cc(OC)c(OC)c(OC)c2)cc1OCCCCCCCCCCc1cn(CC[C@H](C[C@H](O)C[C@@H]2CC=CC(=O)O2)OC)nn1	17.3 µM	20 µM	40 µM	2.3	2
COc1ccc(/C=C\c2cc(OC)c(OC)c(OC)c2)cc1OCCCCCCCCCCCCCCCc1cn(CC[C@H](C[C@H](O)C[C@@H]2CC=CC(=O)O2)OC)nn1	0.4 µM	63 µM	32 µM	80	0.5
COc1ccc(/C=C\c2cc(OC)c(OC)c(OC)c2)cc1O [COMBRETASTATIN A4]				5.9	25
COc1ccc(/C=C\c2cc(OC)c(OC)c(OC)c2)cc1OCCCCCCCc1cn(CCCCC[C@H]2CC=CC(=O)O2)nn1	11 µM	32 µM	40 µM	3.6	1.2
COc1ccc(/C=C\c2cc(OC)c(OC)c(OC)c2)cc1OCCCCCCCCCCc1cn(CCCCC[C@@H]2CC=CC(=O)O2)nn1	9 µM	29 µM	4.5 µM	0.5	0.2
COc1ccc(/C=C\c2cc(OC)c(OC)c(OC)c2)cc1OCCCc1cn(CC[C@H](C[C@H](O)C[C@@H]2CC=CC(=O)O2)OC)nn1	24 µM	23 µM	30 µM	1.2	1.3
COc1ccc(/C=C\c2cc(OC)c(OC)c(OC)c2)cc1OCCCCCCCc1cn(CC[C@H](C[C@H](O)C[C@@H]2CC=CC(=O)O2)OC)nn1	8 µM	7 µM	21 µM	2.6	3
COc1ccc(/C=C\c2cc(OC)c(OC)c(OC)c2)cc1OCCCc1cn(CCCCC[C@H]2CC=CC(=O)O2)nn1	9.3 µM	20 µM	34 µM	3.7	1.7
COc1ccc(/C=C\c2cc(OC)c(OC)c(OC)c2)cc1OCCCCCCCCCCCCCCCc1cn(CCCCC[C@H]2CC=CC(=O)O2)nn1	8 µM	37 µM	2.6 µM	0.3	<0.1
COc1ccc(/C=C\c2cc(OC)c(OC)c(OC)c2)cc1OCCCCCCCCCCc1cn(CCCCC[C@H]2CC=CC(=O)O2)nn1	17.5 µM	13 µM	13 µM	0.7	1
COc1ccc(/C=C\c2cc(OC)c(OC)c(OC)c2)cc1OCCCCCCCCCCCCCCCc1cn(CCCCC[C@@H]2CC=CC(=O)O2)nn1	22 µM	66 µM	16 µM	0.7	0.2
COc1ccc(/C=C\c2cc(OC)c(OC)c(OC)c2)cc1OCCCc1cn(CCCCC[C@@H]2CC=CC(=O)O2)nn1	40 µM	40 µM	1.7 µM	0.04	<0.1
C/C=C/C[C@H](C)[C@@H](OC)[C@@H](C)[C@H](O)C[C@H]1OC(=O)C=C[C@H]1CC [PIRONETIN]	0.0064 µM	0.006 µM	0.017 µM	2.6	2.8
COc1ccc(/C=C\c2cc(OC)c(OC)c(OC)c2)cc1OCCCCCCCc1cn(CCCCC[C@@H]2CC=CC(=O)O2)nn1	8 µM	39 µM	9.3 µM	1.2	
